Reference: patent US20100093763A1, “PHENYL SUBSTITUTED THIENO[2,3-d]PYRIMIDINES AND THEIR USE AS ADENOSINE A2a RECEPTOR ANTAGONISTS” (priority 2008, published 2010)
Where a name gives a salt, the structure may show the parent alone.

Experiments:
[1] = biological target: T1, human adenosine A1 receptor (Homo sapiens, UniProt P30542); test: Adenosine A1 Receptor Functional Assay (A1GAL2); assay type: cell-based; details: CHO-K1 cells overexpressing human A1 receptor, cAMP inducible beta-galactosidase reporter, 4 nM r-PIA/1 uM Forskolin agonist challenge
T1 construct: expressed in transfected cells; host or cells: CHO-K1 cells with cAMP inducible beta-galactosidase reporter gene
T1 sequence (P30542 1-326): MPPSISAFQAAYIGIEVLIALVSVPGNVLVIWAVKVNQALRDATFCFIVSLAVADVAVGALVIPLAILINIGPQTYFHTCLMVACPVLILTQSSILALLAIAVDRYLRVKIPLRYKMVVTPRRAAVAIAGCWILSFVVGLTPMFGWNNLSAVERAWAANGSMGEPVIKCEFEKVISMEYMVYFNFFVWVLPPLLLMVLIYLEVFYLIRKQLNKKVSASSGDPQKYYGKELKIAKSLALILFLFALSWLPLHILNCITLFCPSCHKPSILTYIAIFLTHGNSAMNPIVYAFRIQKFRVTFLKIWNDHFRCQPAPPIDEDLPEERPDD
Description: Adenosine A1 Receptor Functional Assay (A1GAL2)
To initiate the functional assay, cryopreserved CHO—K1 cells overexpressing the human adenosine A1 receptor and containing a cAMP inducible beta-galactosidase reporter gene were thawed, centrifuged, DMSO containing media removed, and then seeded with fresh culture media into clear 384-well tissue culture treated plates (BD #353961) at a concentration of 10K cells/well. Prior to assay, these plates were cultured for two days at 37° C., 5% CO2, 90% Rh. On the day of the functional assay, culture media was removed and replaced with 45 uL assay medium (Hams/F-12 Modified (Mediatech #10-080CV) supplemented w/0.1% BSA). Test compounds were diluted and 11 point curves created at a 1000× concentration in 100% DMSO. Immediately after addition of assay media to the cell plates, 50 nL of the appropriate test compound antagonist or agonist control curves were added to cell plates using a Cartesian Hummingbird. Compound curves were allowed to incubate at room temperature on cell plates for approximately 15 minutes before addition of a 4 nM r-PIA (Sigma P4532)/1 uM Forskolin (Sigma F3917) agonist challenge (5 uL volume). A control curve of r-PIA in 1 uM Forskolin, a DMSO/Media control, and a single dose of Forskolin were also included on each plate. After additions, cell plates were allowed to incubate at 37° C., 5% CO2, 90% Rh for 5.5-6 hours. After incubation, media was removed, and cell plates were washed lx 5OuL with DPBS w/o Ca & Mg (Mediatech 21-031-CV).
Into dry wells, 20 uL of 1× Reporter Lysis Buffer (Promega E3971 (diluted in dH2O from 5× stock)) was added to each well and plates frozen at −20° C. overnight. For β-galactosidase enzyme calorimetric assay, plates were thawed out at room temperature and 20 μL 2× assay buffer (Promega) was added to each well. Color was allowed to develop at 37° C., 5% CO2, 90% Rh for 1-1.5 h or until reasonable signal appeared. The calorimetric reaction was stopped with the addition of 60 μL/well 1M sodium carbonate. Plates were counted at 405 nm on a SpectraMax Microplate Reader (Molecular Devices). Data was analyzed in Microsoft Excel and IC/EC50 curves were fit using a standardized macro.

[2] = biological target: T2, human adenosine A2a receptor (Homo sapiens, UniProt P29274); test: Adenosine A2a Receptor Functional Assay (A2AGAL2); assay type: cell-based; details: CHO-K1 cells overexpressing human A2a receptor, cAMP inducible beta-galactosidase reporter, 15 nM NECA agonist challenge
T2 construct: expressed in transfected cells; host or cells: CHO-K1 cells with cAMP inducible beta-galactosidase reporter gene
Description: Adenosine A2a Receptor Functional Assay (A2AGAL2)
To initiate the functional assay, cryopreserved CHO—K1 cells overexpressing the human adenosine A2a receptor and containing a cAMP inducible beta-galactosidase reporter gene were thawed, centrifuged, DMSO containing media removed, and then seeded with fresh culture media into clear 384-well tissue culture treated plates (BD #353961) at a concentration of 10K cells/well. Prior to assay, these plates were cultured for two days at 37° C., 5% CO2, 90% Rh. On the day of the functional assay, culture media was removed and replaced with 45 uL assay medium (Hams/F-12 Modified (Mediatech #10-080CV) supplemented w/0.1% BSA). Test compounds were diluted and 11 point curves created at a 1000× concentration in 100% DMSO. Immediately after addition of assay media to the cell plates, 50 nL of the appropriate test compound antagonist or agonist control curves were added to cell plates using a Cartesian Hummingbird. Compound curves were allowed to incubate at room temperature on cell plates for approximately 15 minutes before addition of a 15 nM NECA (Sigma E2387) agonist challenge (5 uL volume). A control curve of NECA, a DMSO/Media control, and a single dose of Forskolin (Sigma F3917) were also included on each plate. After additions, cell plates were allowed to incubate at 37° C., 5% CO2, 90% Rh for 5.5-6 hours. After incubation, media was removed, and cell plates were washed 1× 50 uL with DPBS w/o Ca & Mg (Mediatech 21-031-CV). Into dry wells, 20 uL of 1× Reporter Lysis Buffer (Promega E3971 (diluted in dH2O from 5× stock)) was added to each well and plates frozen at −20° C. overnight. For β-galactosidase enzyme calorimetric assay, plates were thawed out at room temperature and 20 μL 2× assay buffer (Promega) was added to each well. Color was allowed to develop at 37° C., 5% CO2, 90% Rh for 1-1.5 h or until reasonable signal appeared. The calorimetric reaction was stopped with the addition of 60 μL/well 1M sodium carbonate. Plates were counted at 405 nm on a SpectraMax Microplate Reader (Molecular Devices). Data was analyzed in Microsoft Excel and IC/EC50 curves were fit using a standardized macro.

[3] = biological target: T3, human A2a adenosine receptor (Homo sapiens, UniProt P29274); test: Ligand Binding Assay for Adenosine A2a Receptor (A2A-B); details: plasma membrane of HEK293 cells containing human A2a receptor, radioligand [3H]CGS21680
T3 construct: purchased PerkinElmer RB-HA2a; host or cells: HEK293 cells (plasma membrane preparation)
Description: Ligand Binding Assay for Adenosine A2a Receptor
Ligand binding assay of adenosine A2a receptor was performed using plasma membrane of HEK293 cells containing human A2a adenosine receptor (PerkinElmer, RB-HA2a) and radioligand [^3H]CGS21680 (PerkinElmer, NET1021). Assay was set up in 96-well polypropylene plate in total volume of 200 μL by sequentially adding 20 μL1:20 diluted membrane, 130 μL assay buffer (50 mM Tris•HCl, pH7.4 10 mM MgCl2, 1 mM EDTA) containing [^3H] CGS21680, 50 μL diluted compound (4×) or vehicle control in assay buffer. Nonspecific binding was determined by […] NECA. Reaction was carried out at room temperature for 2 hours before filtering through 96-well GF/C filter plate pre-soaked in 50 mM Tris•HCl, pH7.4 containing 0.3% polyethylenimine. Plates were then washed 5 times with cold 50 mM Tris•HCl, pH7.4, dried and sealed at the bottom. Microscintillation fluid 30 μL was added to each well and the top sealed. Plates were counted on Packard Topcount for [^3H]. Data was analyzed in Microsoft Excel and GraphPad Prism programs. (Varani, K.; Gessi, S.; Dalpiaz, A.; Borea, P. A. British Journal of Pharmacology, 1996, 117, 1693)

T3 sequence (P29274 whole entry): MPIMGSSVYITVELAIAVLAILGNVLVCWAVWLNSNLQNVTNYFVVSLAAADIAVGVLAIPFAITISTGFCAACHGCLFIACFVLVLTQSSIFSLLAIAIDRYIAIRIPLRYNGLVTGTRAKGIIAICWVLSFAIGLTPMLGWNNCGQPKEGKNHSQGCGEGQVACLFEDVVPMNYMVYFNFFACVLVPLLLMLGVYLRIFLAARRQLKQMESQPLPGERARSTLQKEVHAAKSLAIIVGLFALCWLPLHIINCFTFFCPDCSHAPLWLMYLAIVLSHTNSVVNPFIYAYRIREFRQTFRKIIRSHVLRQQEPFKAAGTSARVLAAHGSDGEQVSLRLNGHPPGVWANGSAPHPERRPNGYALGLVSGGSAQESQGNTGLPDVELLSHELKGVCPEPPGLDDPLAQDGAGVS
T2 sequence (P29274 whole entry): as above

Ki [1] [nM] | Ki [2] [nM] | Ki [3] [nM] | Compound
162 | 80.1 |  | COc1ccccc1C(=O)c1cc2c(N)nc(-c3cccc(F)c3)nc2s1 [Example 21, [4-Amino-2-(3-fluoro-phenyl)-thieno[2,3-d]pyrimidin-6-yl]-(2-methoxy-phenyl)-methanone]
865 | 175 |  | COc1ccccc1C(=O)c1cc2c(N)nc(-c3cccc(OC(F)(F)F)c3)nc2s1 [Example 18, [4-Amino-2-(3-trifluoromethoxy-phenyl)-thieno[2,3-d]pyrimidin-6-yl]-(2-methoxy-phenyl)-methanone]
1040 | 23 |  | COc1ccccc1C(=O)c1cc2c(N)nc(-c3cccc(C#N)c3)nc2s1 [Example 17, 3-[4-Amino-6-(2-methoxy-benzoyl)-thieno[2,3-d]pyrimidin-2-yl]-benzonitrile]
123 | 42.2 |  | Nc1nc(-c2cccc(F)c2)nc2sc(Cc3ccccc3)cc12 [Example 14, 6-Benzyl-2-(3-fluoro-phenyl)-thieno[2,3-d]pyrimidin-4-ylamine]
418 | 62.4 | 39.3 | COc1ccccc1Cc1cc2c(N)nc(-c3cccc(F)c3)nc2s1 [Example 19, 2-(3-Fluoro-phenyl)-6-(2-methoxy-benzyl)-thieno[2,3-d]pyrimidin-4-ylamine]
266 | 118 |  | COc1cccc(-c2nc(N)c3cc(Cc4ccccc4)sc3n2)c1 [Example 13, 6-Benzyl-2-(3-methoxy-phenyl)-thieno[2,3-d]pyrimidin-4-ylamine hydrochloride]
1010 | 39.1 |  | N#Cc1cccc(-c2nc(N)c3cc(Cc4ccccc4OC(F)(F)F)sc3n2)c1 [Example 15, 3-[4-Amino-6-(2-trifluoromethoxy-benzyl)-thieno[2,3-d]pyrimidin-2-yl]-benzonitrile]
564 | 188 |  | Nc1nc(-c2cccc(F)c2)nc2sc(Cc3cc(F)cc(F)c3)cc12 [Example 20, 6-(3,5-Difluoro-benzyl)-2-(3-fluoro-phenyl)-thieno[2,3-d]pyrimidin-4-ylamine]

Further lines, the compound ahead of its results:

Compound | Ki [1] [nM] | Ki [2] [nM] | Ki [3] [nM]
CC(c1ccccc1)c1cc2c(N)nc(-c3cccc(C#N)c3)nc2s1 (racemic) [Example 10, (±)-3-[4-Amino-6-(1-phenyl-ethyl)-thieno[2,3-d]pyrimidin-2-yl]-benzonitrile] | 1770 | 340 | 
Nc1nc(-c2cccc(C(F)(F)F)c2)nc2sc(Cc3ccccc3)cc12 [Example 12, 6-Benzyl-2-(3-trifluoromethyl-phenyl)-thieno[2,3-d]pyrimidin-4-ylamine] | > 1040 | 1020 | 
N#Cc1cccc(-c2nc(N)c3cc(CCc4ccccc4)sc3n2)c1 [Example 2, 3-(4-Amino-6-phenethyl-thieno[2,3-d]pyrimidin-2-yl)-benzonitrile] | 4640 | 802 | 
N#Cc1cccc(-c2nc(N)c3cc(C4(c5ccccc5)CC4)sc3n2)c1 [Example 6, 3-[4-Amino-6-(1-phenyl-cyclopropyl)-thieno[2,3-d]pyrimidin-2-yl]-benzonitrile] | > 610 | 222 | 
C=C(c1ccccc1)c1cc2c(N)nc(-c3cccc(C#N)c3)nc2s1 [Example 5, 3-[4-Amino-6-(1-phenyl-vinyl)-thieno[2,3-d]pyrimidin-2-yl]-benzonitrile] | > 1040 | 63.4 | 
COc1ccccc1Cc1cc2c(N)nc(-c3cccc(C#N)c3)nc2s1 [Example 9, 3-[4-Amino-6-(2-methoxy-benzyl)-thieno[2,3-d]pyrimidin-2-yl]-benzonitrile] | 129 | 6.15 | 12.5
COc1ccccc1-c1nc(N)c2cc(Cc3ccccc3)sc2n1 [Example 11, 6-Benzyl-2-(2-methoxy-phenyl)-thieno[2,3-d]pyrimidin-4-ylamine] | 374 | 217 | 
N#Cc1cccc(-c2nc(N)c3cc(Cc4ccccc4)sc3n2)c1 [Example 1, 3-(4-Amino-6-benzyl-thieno[2,3-d]pyrimidin-2-yl)-benzonitrile] | 205 | 10.6 | 16.8
